Measured values published in PubChem BioAssay (NCI).
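Assay format: 96-well plates, 48-hour exposure. TGI: total growth inhibition.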

Key:
Test in all cases: NCI tumour cell line growth inhibition, 48 h
[1] = tested on: 786-0 renal
[2] = tested on: A498 renal
[3] = tested on: A549 NSCLC
[4] = tested on: ACHN renal
[5] = tested on: BT-549 breast
[6] = tested on: CAKI-1 renal
[7] = tested on: CCRF-CEM leukemia
[8] = tested on: COLO 205 colon
[9] = tested on: DU-145 prostate
[10] = tested on: EKVX NSCLC
[11] = tested on: HCC-2998 colon
[12] = tested on: HCT-116 colon
[13] = tested on: HCT-15 colon
[14] = tested on: HL-60(TB) leukemia
[15] = tested on: HOP-62 NSCLC
[16] = tested on: HS 578T breast
[17] = tested on: HT29 colon
[18] = tested on: IGROV1 ovarian
[19] = tested on: K-562 leukemia
[20] = tested on: KM12 colon
[21] = tested on: LOX IMVI melanoma
[22] = tested on: M14 melanoma
[23] = tested on: MALME-3M melanoma
[24] = tested on: MCF7 breast
[25] = tested on: MDA-MB-231 breast
[26] = tested on: MDA-MB-435
[27] = tested on: MDA-N
[28] = tested on: MOLT-4 leukemia
[29] = tested on: NCI-H226 lung
[30] = tested on: NCI-H23 lung
[31] = tested on: NCI-H460 lung
[32] = tested on: NCI-H522 lung
[33] = tested on: NCI/ADR-RES ovarian
[34] = tested on: OVCAR-3 ovarian
[35] = tested on: OVCAR-4 ovarian
[36] = tested on: OVCAR-5 ovarian
[37] = tested on: OVCAR-8 ovarian
[38] = tested on: PC-3 prostate
[39] = tested on: RPMI-8226 leukemia
[40] = tested on: RXF 393 renal
[41] = tested on: SF-268 CNS
[42] = tested on: SF-295 CNS
[43] = tested on: SF-539 CNS
[44] = tested on: SK-MEL-2 melanoma
[45] = tested on: SK-MEL-28 melanoma
[46] = tested on: SK-MEL-5 melanoma
[47] = tested on: SK-OV-3 ovarian
[48] = tested on: SN12C renal
[49] = tested on: SNB-19 CNS
[50] = tested on: SNB-75 CNS
[51] = tested on: SR leukemia
[52] = tested on: SW-620 colon
[53] = tested on: T-47D breast
[54] = tested on: TK-10 renal
[55] = tested on: U251 CNS
[56] = tested on: UACC-257 melanoma
[57] = tested on: UACC-62 melanoma
[58] = tested on: UO-31 renal

CCCCC(/C=C\COC1CCCCO1)=C/C(=O)OCC (stereo not given)
TGI [1]: > 100 µM | TGI [2]: > 100 µM | TGI [3]: > 100 µM | TGI [4]: > 100 µM | TGI [5]: > 100 µM | TGI [6]: > 100 µM | TGI [7]: > 100 µM | TGI [8]: > 100 µM | TGI [9]: > 100 µM | TGI [10]: > 100 µM | TGI [11]: > 100 µM | TGI [12]: > 100 µM | TGI [13]: > 100 µM | TGI [14]: 67.5 µM | TGI [15]: > 100 µM | TGI [16]: > 100 µM | TGI [17]: > 100 µM | TGI [18]: > 100 µM | TGI [19]: > 100 µM | TGI [20]: > 100 µM | TGI [21]: > 100 µM | TGI [22]: > 100 µM | TGI [23]: > 100 µM | TGI [24]: > 100 µM | TGI [25]: > 100 µM | TGI [26]: > 100 µM | TGI [27]: > 100 µM | TGI [28]: 71.5 µM | TGI [29]: > 100 µM | TGI [30]: > 100 µM | TGI [31]: > 100 µM | TGI [32]: > 100 µM | TGI [33]: > 100 µM | TGI [34]: > 100 µM | TGI [35]: > 100 µM | TGI [36]: > 100 µM | TGI [37]: > 100 µM | TGI [38]: > 100 µM | TGI [39]: > 100 µM | TGI [40]: > 100 µM | TGI [41]: > 100 µM | TGI [42]: > 100 µM | TGI [43]: > 100 µM | TGI [44]: > 100 µM | TGI [45]: > 100 µM | TGI [46]: > 100 µM | TGI [47]: > 100 µM | TGI [48]: > 100 µM | TGI [49]: > 100 µM | TGI [50]: > 100 µM | TGI [51]: > 100 µM | TGI [52]: > 100 µM | TGI [53]: > 100 µM | TGI [54]: > 100 µM | TGI [55]: > 100 µM | TGI [56]: > 100 µM | TGI [57]: > 100 µM | TGI [58]: > 100 µM

N#Cc1ncn(CCO)c1N
TGI [1]: > 100 µM | TGI [2]: > 100 µM | TGI [3]: > 100 µM | TGI [4]: > 100 µM | TGI [5]: > 100 µM | TGI [6]: > 100 µM | TGI [7]: > 100 µM | TGI [8]: > 100 µM | TGI [9]: > 100 µM | TGI [10]: > 100 µM | TGI [11]: > 100 µM | TGI [12]: > 100 µM | TGI [13]: > 100 µM | TGI [14]: > 100 µM | TGI [15]: > 100 µM | TGI [16]: > 100 µM | TGI [17]: > 100 µM | TGI [18]: > 100 µM | TGI [19]: > 100 µM | TGI [20]: > 100 µM | TGI [21]: > 100 µM | TGI [22]: > 100 µM | TGI [23]: > 100 µM | TGI [24]: > 100 µM | TGI [25]: > 100 µM | TGI [26]: > 100 µM | TGI [27]: > 100 µM | TGI [28]: > 100 µM | TGI [29]: > 100 µM | TGI [30]: > 100 µM | TGI [31]: > 100 µM | TGI [32]: > 100 µM | TGI [33]: > 100 µM | TGI [34]: > 100 µM | TGI [35]: > 100 µM | TGI [36]: > 100 µM | TGI [37]: > 100 µM | TGI [38]: > 100 µM | TGI [39]: > 100 µM | TGI [41]: > 100 µM | TGI [42]: > 100 µM | TGI [43]: > 100 µM | TGI [44]: > 100 µM | TGI [45]: > 100 µM | TGI [46]: > 100 µM | TGI [47]: > 100 µM | TGI [48]: > 100 µM | TGI [49]: > 100 µM | TGI [50]: > 100 µM | TGI [51]: > 100 µM | TGI [52]: > 100 µM | TGI [53]: > 100 µM | TGI [54]: > 100 µM | TGI [55]: > 100 µM | TGI [56]: > 100 µM | TGI [57]: > 100 µM | TGI [58]: > 100 µM
